Patent publication US10082509B2 (priority 2013, dated 2018)
Entries after “also recorded” stand apart in the source; their conditions may differ. Like-named read-outs stand apart in the source and are kept apart here.

Columns and labels:
[1] = test system: P. aeruginosa (ATCC 9027); type: cell-based, Pseudomonas aeruginosa
[2] = test system: Legionella pneumophila; type: cell-based; details: for membrane labelling: FIG. 4; for labelling / metabolic incorporation: L. pneumophila strains, laboratory in vitro conditions, FIG. 7
[3] = test system: L. gormanii, L. maceachernii, L. micdadei, L. anisa, L. feeli, L. jordanis, L. tucsonensis and L. bozemanii; type: cell-based, Legionella spp.
[4] = test system: E. coli K12 (MG1655); type: cell-based, Escherichia coli

Row | SMILES | labelling / metabolic incorporation [1] | membrane labelling ([2]; L. pneumophila strain of serogroup 7) | labelling / metabolic incorporation [2] | membrane fluorescence / metabolic incorporation of the azido chemical reporter into LPS ([2]; four L. pneumophila serogroup 1 strains (incl. Philadelphia, Paris, Lens), 4 mM, 12 hours, 37° C., FIG. 3) | membrane labelling ([2]; four L. pneumophila strains of serogroups 3, 4, 5, 6) | membrane fluorescence / metabolic incorporation [3] | labelling / metabolic incorporation [4]
1 | CC(=O)N[C@H]1[C@H](O)[C@H](NC(C)=O)C(O)O[C@@H]1CN=[N+]=[N-] (some centres unmarked) | not incorporated; also recorded: failed to show any labelling | absence of labelling | efficiently labelled | highly distinctive fluorescence on their membrane | very bright membrane labelling | not incorporated; also recorded: no membrane fluorescence was observed | not incorporated; also recorded: failed to show any labelling
2 | CC(=O)NC1C(O)OC(CN=[N+]=[N-])[C@@H](NC(C)=O)[C@@H]1OC(C)=O (some centres unmarked) |  |  | not incorporated; also recorded: No labelling was observed |  |  |  | 
